What was measured:
[1] = system: serum β-amyloid; conditions: patients with high low-density lipoprotein cholesterol; lovastatin 40 or 60 mg; cited from earlier work
[2] = system: patients with Alzheimer's disease; assay: Change in ADAS-cog/11 in combined double-blind, placebo-controlled galantamine clinical trials (5 to 6 months); format: in vivo, human; conditions: combined trial data, galantamine 24 mg daily, controls for study and AD severity
Description: The objective was to evaluate the effect of statins on cognitive maintenance in patients with Alzheimer's disease during 5- and 6-month randomized clinical trials of galantamine.
Data were combined from 3 double-blind, placebo-controlled clinical trials limited to patients treated with galantamine 24 mg daily or placebo
Patients were categorized based on galantamine status and any statin use.
Changes in the Alzheimer's Disease Assessment Scale-cognitive subscale with standard 11 items (ADAS-cog/11) using last observation carried forward (LOCF) were assessed
Comparisons between patient subgroups were made controlling for relevant confounding factors.

## CC[C@H](C)C(=O)O[C@H]1C[C@@H](C)C=C2C=C[C@H](C)[C@H](CC[C@@H]3C[C@@H](O)CC(=O)O3)[C@H]21 [lovastatin]
[1]
  serum β-amyloid: decreased serum β-amyloid

## COc1ccc2c3c1O[C@H]1C[C@@H](O)C=C[C@@]31CCN(C)C2 [GAL 24 only, (4aS,6R,8aS)-4a, 5,9,10,11,12-hexahydro-3-methoxy-1 1-methyl-6H-benzofuro[3a,3,2-ef][2]benzazepin-6-ol]
[2]; Intent-to-treat analysis (LOCF)
  ADAS-Cog change score, LS Means (SE): −0.88 (0.25)
[2]; Intent-to-treat analysis (LOCF), listed as GAL-only
  ADAS-Cog change score, LS Means (SE): −0.88
[2]; Observed cases
  ADAS-Cog change score, LS Means (SE): −0.61 (0.28)
